Measured values as given in patent US10703765B2 (priority 2014, dated 2020).
Where a name gives a salt, the structure may show the parent alone.

Molecular target: human σ1 receptor (Homo sapiens, UniProt Q99720)
Test: biochemical
Format: binding
Design: μ and σ1 dual binding: key to the marks not given beside the values
Conditions: not given

Chain of human σ1 receptor (Q99720 whole entry): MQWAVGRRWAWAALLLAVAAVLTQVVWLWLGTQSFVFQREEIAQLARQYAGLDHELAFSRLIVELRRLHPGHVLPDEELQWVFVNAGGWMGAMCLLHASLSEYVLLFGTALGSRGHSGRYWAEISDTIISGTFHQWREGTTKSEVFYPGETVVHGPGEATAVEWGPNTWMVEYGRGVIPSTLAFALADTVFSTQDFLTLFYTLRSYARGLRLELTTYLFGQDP

Row | Compound | Ki [nM] | μ and σ1 dual binding
1 | CC(C)C1OC2(CCN(CCc3ccccn3)CC2)CN(c2ccccc2F)C1=O (stereo not shown) [Example 313, 4-(2-fluorophenyl)-2-isopropyl-9-(2-(pyridin-2-yl)ethyl)-1-oxa-4,9-diazaspiro[5.5]undecan-3-one hydrochloride] | < 500 | –
2 | COCCCC1OC2(CCN(CCc3ccccc3)CC2)CN(c2ccccc2F)C1=O (stereo not shown) [Example 314, 4-(2-fluorophenyl)-2-(3-methoxypropyl)-9-phenethyl-1-oxa-4,9-diazaspiro[5.5]undecan-3-one hydrochloride] | < 500 | –
3 | COCC1CN(c2ccccc2)CC2(CCN(CCc3ccccc3)CC2)O1 (stereo not shown) [Example 319, 2-(methoxymethyl)-9-phenethyl-4-phenyl-1-oxa-4,9-diazaspiro[5.5]undecane hydrochloride] | < 500 | –
4 | COc1cccc(CCN2CCC3(CC2)CN(c2ccccc2)CCO3)c1.Cl [Example 320, 9-(3-methoxyphenethyl)-4-phenyl-1-oxa-4,9-diazaspiro[5.5]undecane hydrochloride] | – | ++
5 | OCCC1CN(c2ccccc2)CC2(CCN(CCc3ccccc3)CC2)O1 (stereo not shown) [Example 323, 2-(9-phenethyl-4-phenyl-1-oxa-4,9-diazaspiro[5.5]undecan-2-yl)ethanol hydrochloride] | < 500 | –
6 | CC1CN(Cc2ccn(C)n2)CC2(CCN(CCc3ccccc3)CC2)O1 (stereo not shown) [Example 328, 2-methyl-4-((1-methyl-1H-pyrazol-3-yl)methyl)-9-phenethyl-1-oxa-4,9-diazaspiro[5.5]undecane dihydrochloride] | – | ++
7 | CC1CN(CCc2cccnc2)CC2(CCN(CCc3ccccc3)CC2)O1 (stereo not shown) [Example 331, 2-methyl-9-phenethyl-4-(2-(pyridin-3-yl)ethyl)-1-oxa-4,9-diazaspiro[5.5]undecane hydrochloride] | – | ++
8 | COc1cccc(N2CCOC3(CCN(CCc4ccccc4)CC3)C2)c1.Cl [Example 333, 4-(3-methoxyphenyl)-9-phenethyl-1-oxa-4,9-diazaspiro[5.5]undecane hydrochloride] | – | ++
9 | COc1ccccc1CCN1CCC2(CC1)CN(c1ccccc1)CCO2.Cl [Example 334, 9-(2-methoxyphenethyl)-4-phenyl-1-oxa-4,9-diazaspiro[5.5]undecane hydrochloride] | – | ++
10 | c1ccc(CCN2CCC3(CC2)CN(CCc2ccccc2)CCO3)cc1 [Example 337, 4,9-diphenethyl-1-oxa-4,9-diazaspiro[5.5]undecane dihydrochloride] | – | ++
11 | CC1COC2(CCN(CCc3ccccc3)CC2)CN1c1ccccc1 (stereo not shown) [Example 340, 3-methyl-9-phenethyl-4-phenyl-1-oxa-4,9-diazaspiro[5.5]undecane hydrochloride] | < 500 | –
12 | COC(=O)CCN1CCC2(CC1)CN(Cc1ccccc1)CC1(CC1)O2 [Example 347, methyl 3-(12-benzyl-4-oxa-8,12-diazadispiro[2.1.5.3]tridecan-8-yl)propanoate] | < 500 | –

Same assay, conditions: combined class from Ki-σ1 (human σ1 receptor, A1) and Ki-μ (human μ-opioid receptor, A2) radioligand binding

Row | Compound | μ and σ1 dual binding
13 | Oc1ccccc1CCN1CCC2(CC1)CN(c1ccccc1)CCO2 [Example 321, 2-(2-(4-phenyl-1-oxa-4,9-diazaspiro[5.5]undecan-9-yl)ethyl)phenol] | ++
14 | COc1ccc(CCN2CCC3(CC2)CN(c2ccccc2)CCO3)cc1 [Example 332, 9-(4-methoxyphenethyl)-4-phenyl-1-oxa-4,9-diazaspiro[5.5]undecane] | ++
15 | O=C1N(c2cccnc2C(F)(F)F)CC2(CCN(CCc3cc(F)ccc3F)CC2)OC12CC2 [Example 341, 8-(2,5-difluorophenethyl)-12-(2-(trifluoromethyl)pyridin-3-yl)-4-oxa-8,12-diazadispiro[2.1.5.3]tridecan-13-one] | ++
16 | COC(=O)CCN1CCC2(CC1)CN(Cc1ccccc1)C(=O)C1(CC1)O2 [Example 346, methyl 3-(12-benzyl-13-oxo-4-oxa-8,12-diazadispiro[2.1.5.3]tridecan-8-yl)propanoate] | ++

Same assay, conditions: read-out: μ and σ1 dual binding

Row | Compound | Ki [nM]
17 | CC1OC2(CCN(CC(=O)N(C)c3ccccc3)CC2)CN(c2ccccc2)C1=O (stereo not shown) [Example 315, N-methyl-2-(2-methyl-3-oxo-4-phenyl-1-oxa-4,9-diazaspiro[5.5]undecan-9-yl)-N-phenylacetamide hydrochloride] | > 500
18 | Oc1cccc(N2CCOC3(CCN(CCc4ccccc4)CC3)C2)c1 [Example 316, 3-(9-phenethyl-1-oxa-4,9-diazaspiro[5.5]undecan-4-yl)phenol] | < 500
19 | c1ccc(CCN2CCC3(CC2)CN(c2ccccc2)CCO3)cc1 [Example 317, 9-phenethyl-4-phenyl-1-oxa-4,9-diazaspiro[5.5]undecane] | < 500
20 | Oc1cccc(N2CCOC3(CCN(Cc4ccccc4)CC3)C2)c1 [Example 318, 3-(9-benzyl-1-oxa-4,9-diazaspiro[5.5]undecan-4-yl)phenol] | < 500
21 | Oc1cccc(CCN2CCC3(CC2)CN(c2ccccc2)CCO3)c1 [Example 322, 3-(2-(4-phenyl-1-oxa-4,9-diazaspiro[5.5]undecan-9-yl)ethyl)phenol] | < 500
22 | c1ccc(CCN2CCC3(CC2)CN(Cc2ccccc2)CCO3)cc1 [Example 324, 4-benzyl-9-phenethyl-1-oxa-4,9-diazaspiro[5.5]undecane dihydrochloride] | < 100
23 | c1ccc(CCN2CCC3(CC2)CN(Cc2cscn2)CCO3)cc1 [Example 325, 9-phenethyl-4-(thiazol-4-ylmethyl)-1-oxa-4,9-diazaspiro[5.5]undecane dihydrochloride] | < 500
24 | COc1ccccc1CCN1CCC2(CC1)CN(Cc1ccccn1)CCO2 [Example 326, 9-(2-methoxyphenethyl)-4-(pyridin-2-ylmethyl)-1-oxa-4,9-diazaspiro[5.5]undecane] | < 500
25 | CC1CN(Cc2nccn2C)CC2(CCN(CCc3ccccc3)CC2)O1 (stereo not shown) [Example 327, 2-methyl-4-((1-methyl-1H-imidazol-2-yl)methyl)-9-phenethyl-1-oxa-4,9-diazaspiro[5.5]undecane dihydrochloride] | < 500
26 | Oc1ccccc1CCN1CCC2(CC1)CN(Cc1ccccn1)CCO2 [Example 329, 2-(2-(4-(pyridin-2-ylmethyl)-1-oxa-4,9-diazaspiro[5.5]undecan-9-yl)ethyl)phenol hydrochloride] | < 100
27 | CC1CN(Cc2ccccn2)CC2(CCN(CCc3ccccc3)CC2)O1 (stereo not shown) [Example 330, 2-methyl-9-phenethyl-4-(pyridin-2-ylmethyl)-1-oxa-4,9-diazaspiro[5.5]undecane hydrochloride] | < 100
28 | CC1CN(Cc2ccccc2)CC2(CCN(CCc3ccccc3)CC2)O1 (stereo not shown) [Example 335, 4-benzyl-2-methyl-9-phenethyl-1-oxa-4,9-diazaspiro[5.5]undecane dihydrochloride] | < 100
29 | c1ccc(CCN2CCC3(CC2)CN(Cc2ccccn2)CCO3)cc1 [Example 336, 9-phenethyl-4-(pyridin-2-ylmethyl)-1-oxa-4,9-diazaspiro[5.5]undecane dihydrochloride] | < 100
30 | Nc1cccc(CCN2CCC3(CC2)CN(Cc2ccccc2)CCO3)c1 [Example 338, 3-(2-(4-benzyl-1-oxa-4,9-diazaspiro[5.5]undecan-9-yl)ethyl)aniline] | > 500
31 | CC(=O)Nc1cccc(CCN2CCC3(CC2)CN(Cc2ccccc2)CCO3)c1 [Example 339, N-(3-(2-(4-benzyl-1-oxa-4,9-diazaspiro[5.5]undecan-9-yl)ethyl)phenyl)acetamide] | < 100
32 | O=C1N(c2cnccc2C(F)(F)F)CC2(CCN(CCc3cc(F)ccc3F)CC2)OC12CC2 [Example 342, 8-(2,5-difluorophenethyl)-12-(4-(trifluoromethyl)pyridin-3-yl)-4-oxa-8,12-diazadispiro[2.1.5.3]tridecan-13-one] | < 500
33 | O=C1N(c2ncccc2C(F)(F)F)CC2(CCN(CCc3cc(F)ccc3F)CC2)OC12CC2 [Example 343, 8-(2,5-difluorophenethyl)-12-(3-(trifluoromethyl)pyridin-2-yl)-4-oxa-8,12-diazadispiro[2.1.5.3]tridecan-13-one] | < 500
34 | Fc1cccnc1CCN1CCC2(CC1)CN(Cc1ccccc1)CC1(CC1)O2 [Example 344, 12-benzyl-8-(2-(3-fluoropyridin-2-yl)ethyl)-4-oxa-8,12-diazadispiro[2.1.5.3]tridecane] | < 100
35 | COC(=O)CCN1CCC2(CC1)CN(c1ccccc1)C(=O)C1(CC1)O2 [Example 348, methyl 3-(13-oxo-12-phenyl-4-oxa-8,12-diazadispiro[2.1.5.3]tridecan-8-yl)propanoate] | > 500
36 | O=C1CO[C@@]2(CCN(Cc3ccccc3)C2)CN1c1ccccc1 [Example 349, (R)-2-benzyl-9-phenyl-6-oxa-2,9-diazaspiro[4.5]decan-8-one] | > 500
37 | O=C1CO[C@]2(CCN(Cc3ccccc3)C2)CN1c1ccccc1 [Example 350, (S)-2-benzyl-9-phenyl-6-oxa-2,9-diazaspiro[4.5]decan-8-one] | > 500
